According to patent US20260174858A1, “TARGETING THE m6A MRNA DEMETHYLASE FTO” (University of Virginia Patent Foundation, priority 2022, published 2026):

Tested on: Wild type C57BL/6J mice
Test: Laser-induced choroidal neovascularization (CNV), CNV volume and F4/80 staining
Assay type: in vivo, mouse
Conditions: for Neovascularization (CNV volume): FTOi i.p. pretreatment plus 25 ng intravitreous after laser injury, day 7, isolectin B4 staining
Method: Laser photocoagulation (532 nm, 180 mW, 100 ms, 75 μm) (OcuLight GL; IRIDEX Corp., Mountain View, CA, USA) was performed bilaterally (volume studies: 4 spots per eye; RNA analyses: 10 spots per eye) in 6- to 8-week-old mice on day 0 to induce CNV as previously described 1-3. For drug treatment, the mice pretreated with FTO inhibitor (FB23-2, SML2694, Sigma) or vehicle (DMSO) through intraperitoneal injection (i.p, 2 mg/kg). Then, the mice were subjected to laser photocoagulation followed by intravitreous injection of the FTO inhibitor (25 ng/0.5 μl per eye) or vehicle. At day 3 after laser injury, the mice were administered the FTO inhibitor (2 mg/kg) or vehicle via intraperitoneal injection. At day 7, the eyes were collected for fluorescein labeled-isolectin B4 and F4/80 staining and for neovascular volume quantification.
RPE flat mounts were prepared as previously described 5. Briefly, at day 3 or 7 after laser injury, mice eyes were enucleated and dissected as retina and sclera-RPE-choroid complexes. The RPE-choroid sheets were immediately fixed in 4% paraformaldehyde (Electron Microscopy Sciences, 50-980-495, USA) in phosphate-buffered saline for 1 hour. […] As described previously^1, CNV volumes were determined by labeling with fluorescein labeled Griffonia Simplicifolia Lectin I (GSL I) isolectin B4 (Vector Laboratories, FL-1201, USA). […] FTO expression was visualized by immunolabeling with anti-FTO antibody (AdipoGen Life Sciences, AG-20A-0083, USA), and the specificity of labeling was assessed using isotype serum immunolabeling. […] Fluorescence images were captured by Nikon AIR laser scanning confocal microscope.
Laser photocoagulation (532 nm, 180 mW, 100 ms, 75 μm) (OcuLight GL; IRIDEX Corp., Mountain View, CA, USA) was performed bilaterally (volume studies: four spots per eye; protein analyses: 20 spots per eye) in 6- to 8-week-old male mice on day 0 to induce CNV in a masked fashion. […] Choroidal neovascularization was visualized using a blue argon laser wavelength (488 nm) and a scanning laser confocal microscope and quantified using Image J software.

## Cc1noc(C)c1-c1cc(Cl)c(Nc2ccccc2C(=O)NO)c(Cl)c1 [FB23-2]
  Neovascularization (CNV volume): inhibits angiogenesis
Listed as selective inhibitor
  Neovascularization (CNV volume): significant reduction in neovascularization
laser-induced CNV, FTO inhibitor in vivo, F4/80 staining
  F4/80 macrophage recruitment: not in F4/80 macrophage recruitment
